ChEMBL document CHEMBL1144649, “2-cyanoaminopyrimidines as a class of antitumor agents that promote tubulin polymerization” (Bioorg Med Chem Lett, 2007)
Calls of active or inactive are those of the source. No cut-off for these calls is given here.

Legend:
COLO 205 = experiment: Cytotoxicity against COLO205 cells; assay type: functional, cell-based; details: Homo sapiens
[1] = Antiproliferative activity against KB8.5 cells; assay type: functional, cell-based; details: Homo sapiens
KB [2] = experiment: Ratio of IC50 for KB8.5 cells to IC50 for KB cells; assay type: functional, Homo sapiens
[3] = Solubility in water at pH 7.4; assay type: physicochemical
[4] = Stability in nude mouse microsomes after 30 mins; assay type: ADME, Microsome; details: read-out: Stability
KB [5] = experiment: Antiproliferative activity against KB cells; assay type: functional, cell-based; details: Homo sapiens
[6] = Antiproliferative activity against KBV1cells; assay type: functional, cell-based; details: Homo sapiens, KB-V1
Tubulin (Homo sapiens) [7] = target: T1, Tubulin (Homo sapiens) (UniProt P68371+Q9H4B7+P0DPH7+P68366+Q13509+Q71U36+P04350+Q3ZCM7+P07437+P68363+Q9BQE3+Q6PEY2+Q13885+Q9BVA1+Q9BUF5); experiment: Stimulation of MAP-rich tubulin polymerization; assay type: protein-complex assay
Tubulin (Homo sapiens) [8] = target: T1, Tubulin (Homo sapiens); experiment: Stimulation of tubulin polymerization; assay type: protein-complex assay
[9] = Ratio of IC50 for KB V1 cells to IC50 for KB cells

SMILES: CCN(C#N)c1nc(Cl)c(-c2c(F)cc(F)cc2F)c(NCC(F)(F)F)n1
- IC50 (COLO 205): 304 nM

SMILES: CN(C)CCOc1cc(F)c(-c2c(Cl)nc(N(C)C#N)nc2NCC(F)(F)F)c(F)c1
- IC50 (COLO 205): 532 nM

SMILES: CNCCCOc1cc(F)c(-c2c(Cl)nc3ncnn3c2N[C@@H](C)C(F)(F)F)c(F)c1.Cl
- IC50 [1]: 67 nM
- Ratio IC50 (KB [2]): 2.9

SMILES: C[C@H](Nc1nc(N(C)C#N)nc(Cl)c1-c1c(F)cc(OCCCN(C)C)cc1F)C(F)(F)F
- IC50 (COLO 205): 36 nM
- solubility [3]: > 100 µg/mL
- remaining at 0.5 h [4]: 92%
- IC50 (KB [5]): 24 nM
- IC50 [1]: 59 nM
- IC50 [6]: 82 nM
- Ratio IC50 (KB [2]): 2.5
- Activity (Tubulin (Homo sapiens) [7]): Active
- Activity (Tubulin (Homo sapiens) [8]): Active
- Ratio IC50 [9]: 3.5

SMILES: CN(C#N)c1nc(Cl)c(-c2c(F)cc(F)cc2F)c(NCC(F)(F)F)n1
- IC50 (COLO 205): 214 nM

SMILES: CN(C)CCCOc1cc(F)c(-c2c(Cl)nc(N(C)C#N)nc2NCC(F)(F)F)c(F)c1
- IC50 (COLO 205): 52 nM

SMILES: CC[C@]1(O)C[C@H]2CN(CCc3c([nH]c4ccccc34)[C@@](C(=O)OC)(c3cc4c(cc3OC)N(C=O)[C@H]3[C@@](O)(C(=O)OC)[C@H](OC(C)=O)[C@]5(CC)C=CCN6CC[C@]43[C@@H]65)C2)C1 [VINCRISTINE]
- IC50 [1]: 58 nM
- IC50 [6]: 2040 nM
- Ratio IC50 (KB [2]): 26
- Ratio IC50 [9]: 925

SMILES: C=CCN(C#N)c1nc(Cl)c(-c2c(F)cc(F)cc2F)c(NCC(F)(F)F)n1
- IC50 (COLO 205): 477 nM

SMILES: CN(C)CCCCOc1cc(F)c(-c2c(Cl)nc(N(C)C#N)nc2NCC(F)(F)F)c(F)c1
- IC50 (COLO 205): 229 nM

SMILES: CC(=O)O[C@H]1C(=O)[C@@]2(C)[C@H]([C@H](OC(=O)c3ccccc3)[C@]3(O)C[C@H](OC(=O)[C@H](O)[C@@H](NC(=O)c4ccccc4)c4ccccc4)C(C)=C1C3(C)C)[C@]1(OC(C)=O)CO[C@@H]1C[C@@H]2O [PACLITAXEL]
- IC50 [6]: 2010 nM
